Data published in patent publication US20240197729A1, “ALK-5 Inhibitors and Uses Thereof” (Sumitomo Pharma Oncology, Inc., priority 2021, published 2024).

Key:
athymic nude mice = settings: mouse, in vivo; for therapeutic index: female, athymic nude (NCRNU), 5 days; for MTD / tolerability, acute MTD study: po
Procedure: . Evaluation of the acute and chronic maximum tolerated dose (MTD) for Compound 04 and Compound 01 was carried out by oral gavage administration of each compound to athymic nude mice according to the following procedure.
Five weeks-old female athymic nude mice (NCRNU) were purchased from Taconic Biosciences, Rensselaer NY, and acclimated for one week. Mice were approximately […] when enrolled in the study. All compounds were resuspended in 1-methyl-2-pyrrolidinone (Sigma, 494496) (10% v/v) plus 20% Solutol (Sigma 42966) in water (90% v/v). Mice were randomized according to the baseline weight (Day 1) at the beginning of the acute and chronic MTD studies.
For the acute MTD study, mice were administered three escalating doses of each compound every other day (two animals per group). Mice were dosed by oral gavage with one hundred milligrams per kilogram on day one, five hundred milligrams per kilogram on day three, and one thousand milligrams per kilogram on day five. Body weight was measured every day, and the percent body weight change was calculated.
For the chronic MTD study, three groups, with three mice per group were dosed daily for five consecutive days, at one hundred, three hundred, or one thousand milligrams per kilogram of Compound 04 or Compound 01, and observed for five consecutive days post-dosing during recovery. Body weight was measured, and clinical observations were recorded daily for ten consecutive days. A vehicle only treatment group of three mice was included to evaluate potential toxicity of the vehicle. The percent body weight change for each day was calculated based on Day 1 measurements.

A549 lung fibroblasts = assay: Epithelial to mesenchymal transition gene expression in A549; format: cell-based; settings: 5 ng/ml TGF-beta1, 48 h, up to 5 micromolar
Procedure: To evaluate whether Compounds 01 and 04 could inhibit epithelial to mesenchymal transition (EMT), an in vitro model using A549 lung fibroblasts was utilized. A549 cells were purchased from ATCC (CCL-185), and grown in RPMI media supplemented with 10 percent fetal bovine serum (FBS). On the day of the experiment, ten thousand A549 cells were seeded in eighty microliters total volume into a flat, tissue culture coated, ninety-six-well plate. Drugs, including positive control compounds vactosertib, PF-06952229 and LY3200882, were added in an eight point, one to three dilution series with the highest concentration of each drug being five micromolar, bringing the total volume of each well to ninety microliters. DMSO, which served to dissolve the 10 millimolar stock solution of each drug, was normalized across all wells After one hour of drug pretreatment, recombinant human TGF-beta1 was added to a final concentration of five nanograms per milliliter, bringing the volume to one hundred microliters. Recombinant human TGF-beta 1 was purchased from R&D Systems (7754-BH-005) and its stock solution was prepared according to manufacturer's instructions and diluted in RPMI media supplemented with 10% FBS. The ninety-six well plate with one hundred microliter volume was incubated at 37° C. at 5% CO2 for forty-eight hours. At the end of the incubation period, gene expression levels of various EMT markers were assessed using a custom designed QuantiGene Plex Gene Expression Assay. The genes chosen were CDH1 (E-cadherin), CDH2 (N-Cadherin), SNAI1 (Snail), SNAI2 (Slug), VIM (Vimentin), SPARC, GALNT6, CTNNB1 (beta-catenin), TGFB1, and MAML3.
Briefly, cell lysate was prepared using the QuantiGene Sample Processing Kit —Cultured Cells (QS0100) in the ninety-six well plate. Cell lysates were then subjected to bead hybridization, multiple probe hybridization steps and SAPE labeling following manufacturer's instruction. The plate was read on a Luminex MAGPIX instrument.

[1] = system: TGF-β-induced pan-collagen expression; assay: In vitro 3D liver fibrosis assay (HepaRG NP 3D model); format: cell-based; settings: 1 μM, 100 ng/mL TGF-β1, 72 hours
Procedure: An additional fibrosis assay was carried out with selected compounds using the Visikol OpenLiver™ HepaRG™ NP 3D model directed at fibrosis. The OpenLiver™ HepaRG™ NP 3D model features the ability to recapitulate a number of liver disease pathologies. Whether evaluating the disease-inducing liability of a compound or exploring targets to exploit for therapeutic amelioration of disease state, the HepaRG™ NP 3D model is capable of recapitulating disease features such hepatocellular lipid accumulation, nonparenchymal cell phenotype shift, and collagen matrix deposition.
HepaRGs (Lonza, NSHPRG, Lot #HNS1013) and non-parenchymal (NP) cells (Stellates, Kupffers and LSECS (Lonza, Lot HUM201221)) were thawed, assessed for viability and seeded at a hepatocyte to NP cell ratio of 60:40 into an ultra-low attachment round-bottom plate (Corning, 4515). The cells were initially cultured in William's E medium supplemented with HepaRG Thaw, Plate & General Purpose Supplement (Thermo Fisher, HPRG770) and GlutaMax (Thermo Fisher, 35050061) overnight. The next day the medium was half exchanged with William's E medium supplemented with HepaRG Maintenance Supplement (Thermo Fisher, HPRG720) and GlutaMax (Thermo Fisher, 35050061). […]
Clearing the spheroid with Visikol HISTO-M™ allows for clear images throughout the spheroid volume, therefore allowing the entire z-stack to be analyzed. […]

[2] = system: TGF-β1-mediated αSMA expression; settings: human, 73 h
Procedure: To test the ability of selected compounds to inhibit the TGF-β1-dependent transition of fibroblasts to myofibroblasts in a relevant disease model of IPF, an FMT assay was performed using lung fibroblasts from IPF patients. In this assay, the transition of fibroblasts to myofibroblasts is determined by the expression of the biomarker alpha smooth muscle actin (α-SMA).
Primary human bronchial fibroblasts derived from IPF patients were seeded on day zero and the media was refreshed on day two. On day five, selected compounds or controls were added at an eight-point concentration response curve starting at 10 μM (semi-log dilutions). Each drug concentration condition was evaluated in biological duplicates. […] Seventy-two hours following TGF-beta addition, the cells were fixed with formaldehyde. High content imaging evaluating cell number using the nuclear stain DAPI as well as the expression of a-SMA was performed. The following controls were run alongside the selected compounds: vactosertib and the approved IPF drug nintedanib (at an eight-point, semi-log curve with 10 μM starting concentration). As a negative control 0.1% DMSO was also used, matching the DMSO concentration in treated wells. The following calculations were used to determine cell number as well as percent inhibition (PIN) of alpha SMA expression:
• Segmentation and quantification of αSMA immunoreactivity by an HCA algorithm, with density×area (D×A) output • Data normalization of raw αSMA (D×A) to percentage inhibition (PIN) values, on a plate-to-plate basis
• DAPI fluorescence applied for HCA-based quantification of the number of imaged cells, on a plate-to-plate basis
[formula] • μn is the average numbers of nuclei of the vehicle control (TGF-β1+0.1% DMSO) • Xi is the compound number of nuclei

| SMILES | therapeutic index (athymic nude mice) | MTD (athymic nude mice) | tolerability, acute MTD study (athymic nude mice) | CDH1 (E-Cadherin) gene expression (A549 lung fibroblasts) | expression of the nine genes induced with EMT (CDH2, SNAI1, SNAI2, VIM, SPARC, GALNT6, CTNNB1, TGFB1, MAML3) (A549 lung fibroblasts) | TGF-β-induced pan-collagen expression [1] | Potentially toxic concentration [2] |
| --- | --- | --- | --- | --- | --- | --- | --- |
| Clc1cccc2c(Nc3ccnc(Nc4cccc(N5CCOCC5)c4)c3)cnnc12 [Compound 04, N4-(8-chlorocinnolin-4-yl)-N2-[3-(morpholin-4-yl)phenyl]pyridine-2,4-diamine] | 6 × | three hundred | well tolerated in mice at one thousand milligrams per kilogram with single dose administration | inhibition of downregulation of CDH1 (E-Cadherin) | inhibition of induction of the nine genes that are induced with EMT | inhibited TGF-β-induced pan-collagen expression |  |
| Cc1cccc(-c2[nH]c(CNc3ccccc3F)nc2-c2ccc3ncnn3c2)n1 [Vactosertib, vactosertib, reference compound] |  |  |  |  |  |  | 5.0 |
| Cc1nn(CC(F)(F)F)cc1Nc1cc(Nc2cnnc3c(C)cccc23)ccn1 [Compound 01, N2-[3-methyl-1-(2,2,2-trifluoroethyl)-1H-pyrazol-4-yl]-N4-(8-methylcinnolin-4-yl)pyridine-2,4-diamine] | less than 4 × | less than three hundred | well tolerated in mice at one thousand milligrams per kilogram with single dose administration | inhibition of downregulation of CDH1 (E-Cadherin) | inhibition of induction of the nine genes that are induced with EMT | inhibited TGF-β-induced pan-collagen expression |  |
